Series [1] is described as follows: Tolerability in mice. It counts as in vivo. The settings on record: same strain as efficacy studies, 30 mg/kg QD PO, unpublished observations. As for the experimental part:
For acalabrutinib, the current clinically recommended oral dose in MCL is 100 mg twice daily (BID)[18],[19], which results in an exposure of 1111 h·ng/mL[18],[19]. There are no published data on the pharmacokinetics of acalabrutinib in mice. The compound was administered at 15 mg/kg BID in mouse xenograft tumor models, giving a total daily dose of 30 mg/kg.

The subject of series [2] is HBL-1. Description: Cell viability, ATPlite. It counts as cell-based, human. The method, then:
(§1) The potency of TL-895 effects on cell viability was further examined in vitro in a panel of diffuse large B-cell lymphoma (DLBCL) and MCL cell lines, comprising ten germinal B-cell like subtype (GCB)-DLBCL cell lines, six activated B-cell like (ABC)-DLBCL cell lines, and six MCL cell lines (Horizon Discovery Inc, Cambridge MA, USA). Cells were seeded into 384-well plates (500 cells/well) and incubated (37 °C for 24 h) before treatment with varying concentrations of TL-895 for 72 h. ATP levels were analyzed using the ATPlite Luminescence Assay System (Perkin Elmer, UK). Growth inhibition and maximum response were calculated using the Chalice Analyzer (Horizon Discovery Inc).

The subject of series [3] is OCI-Ly3. Description: Cell viability, ATPlite. It counts as cell-based, human. The method, then:
as §1
On the technique in general: ATP-based viability assays read luminescence as a measure of living cells.

Series [4] has as its system SU-DHL-2-epst. Briefly: Cell viability, ATPlite. It counts as cell-based, human. The method, then:
as §1

The subject of series [5] is TMD8. Briefly: Cell viability, ATPlite. The class given is cell-based, human. As for the experimental part: as §1
Series [6] is described as follows: Cytotoxicity by ATP content (CellTiter-Glo). The class given is cell-based, human. The settings on record: human, HepG2 cells.
Procedure: (§2) HepG2 cells (human hepatocellular carcinoma [epithelial]) and primary human hepatocytes were cultured in DMEM/F-12 medium supplemented with antibiotics, sodium pyruvate, insulin and 10% fetal calf serum. During the testing steps, the medium was replaced by serum-free media containing bovine serum albumin (BSA) and dexamethasone. All the cultures are incubated at 37 °C in a humidified chamber containing 5% CO2. […] HepG2 and primary hepatocytes were cultured in 96-well tissue culture plates either for luminescence (2E4/well in 100 µL) or pre-coated with collagen I (3.5E4/well in 100 µL, respectively).
(§3) For the cytotoxicity data, the % values relative (%RV) to the vehicle controls were calculated for each dose level. […] The overall EC50s were the averages of the values obtained from each experiment (PRISM® GraphPad™ Software, Boston, MA).
The subject of series [7] is HepG2 cells. Briefly: Cytotoxicity by ATP content (CellTiter-Glo). To be noted: HepG2 EC50 at 24 and 72 h. The class given is cell-based, human.
Procedure: as §2, §3
Series [8] in a line: Cytotoxicity by ATP content (CellTiter-Glo). It counts as cell-based, human. To be noted: primary human hepatocytes, 24 h.
Procedure: as §2, §3
For series [9], the system named is primary human hepatocytes. Description: Cytotoxicity by ATP content (CellTiter-Glo). It counts as cell-based. The settings on record: hepatocyte EC50 at 24 h.
Procedure: as §2, §3
The subject of series [10] is A431 and A549. Briefly: ADCC induced by anti-PD-L1 or anti-EGFR antibody (51Cr release). The class given is cell-based, human. The settings on record: A431 and A549 target cells, PBMC effector cells, 4 h; TL-895 0.05 and 3 µM or 8 nM–25 µM. The method, then: In a second study, ADCC induced by anti-programmed death-ligand 1 (anti-PD-L1) or anti-EGFR antibody was measured using two cultured human tumor cell lines (A431 and A549, target cells; obtained from ATCC). Target cells were stimulated with human interferon-gamma (200 ng/mL) for 48 h to increase surface expression of PD-L1 target protein. Target cell and effector cells (peripheral blood mononuclear cells) were incubated for 4 h with (a) increasing concentrations of antibody (0.2–1000 ng/mL) and TL-895 (0, 0.05 and 3 µM), or (b) a fixed concentration of antibody (20 ng/mL) and increasing concentrations of TL-895 (8 nM–25 µM). ADCC analysis was based on the quantitation of chromium-51 (^51Cr) release during lysis of target cells using […] detection on a MicroBeta2 2450-0060 liquid scintillation and luminescence counter (PerkinElmer, Waltham, MA, USA).

The test system of series [11] is B-cell malignancies. The settings on record: cited from earlier work.
Series [12] has as its target T1, BTK (Homo sapiens, UniProt Q06187). Briefly: Millipore Kinase Profiler screening panel, BTK. The class given is biochemical. The arrangement: purchased EMD Millipore. The settings on record: n = 2. As for the experimental part:
The Kinase Profiler™ screening panel (EMD Millipore, Burlington, MA, USA) was used to test the inhibitory activity of TL-895 against 270 protein kinases. Kinases were incubated with TL-895 (1 µM) for 20 min to 4 h at room temperature, according to standard kinome screen procedures. […]

Series [13] concerns the target T1, BTK. Briefly: Off-Chip mobility shift kinase assay (potency). The class given is biochemical. The arrangement: Purified full-length recombinant BTK (Carna Biosciences #08–080); purchased Carna Biosciences 08–080. To be noted: 75 µM ATP, 90 min, n = 9. As for the experimental part:
Purified full-length recombinant BTK (Carna Biosciences #08–080) was diluted in buffer (see Supplementary Material) to a final concentration of 0.05 ng/µL with 75 µM ATP and 1 µM of the peptide FITC-AHA-[…]-NH2 (Tufts Core Facility, Boston, MA, USA) into microtiter plates. TL-895 (0.038–10,000 nM) was added and the samples were incubated at room temperature for 90 min (min) before the addition of stop buffer containing 10 mM ethylenediamine tetra-acetic acid (EDTA; see Supplementary Material). Samples were read on a Caliper LC3000 (Caliper Life Sciences, Waltham, MA, USA) using an Off-Chip mobility shift assay format to measure percentage conversion of substrate to product, from which half maximal inhibitory concentration (IC50)–response curves were generated.
potent second-generation BTK inhibitor, for the treatment of B-cell
Samantha M. Goodstal, Jing Lin, Timothy Crandall, Lindsey Crowley, Andrew T. Bender,
Albertina Pereira, Maria Soloviev, John S. Wesolowski, Riham Iadevaia,
Sven-Eric Schelhorn, Edith Ross, Federica Morandi, Jianguo Ma, Anderson Clark
Kinase assay buffer components
4 mM dithiothreitol (Sigma, D0632)
100 mM 4-(2-hydroxyethyl)-1-piperazineethanesulfonic acid (HEPES) pH 7.5
0.227% Coating Reagent #3 (Caliper Life Sciences)
TL-89 5 lo g c onc ent rati on (M )
Supplementary Figure S1. Inhibition of recombinant human full-length BTK activity by TL-
895 and resulting IC50. […]

Setting [14] is: Homo sapiens, HBL1, HBL-1 (ABC-DLBCL), 72 h.
The mark [15] stands for this setting: Homo sapiens, TMD8 (ABC-DLBCL), 72 h.

T1 sequence (Q06187 whole entry): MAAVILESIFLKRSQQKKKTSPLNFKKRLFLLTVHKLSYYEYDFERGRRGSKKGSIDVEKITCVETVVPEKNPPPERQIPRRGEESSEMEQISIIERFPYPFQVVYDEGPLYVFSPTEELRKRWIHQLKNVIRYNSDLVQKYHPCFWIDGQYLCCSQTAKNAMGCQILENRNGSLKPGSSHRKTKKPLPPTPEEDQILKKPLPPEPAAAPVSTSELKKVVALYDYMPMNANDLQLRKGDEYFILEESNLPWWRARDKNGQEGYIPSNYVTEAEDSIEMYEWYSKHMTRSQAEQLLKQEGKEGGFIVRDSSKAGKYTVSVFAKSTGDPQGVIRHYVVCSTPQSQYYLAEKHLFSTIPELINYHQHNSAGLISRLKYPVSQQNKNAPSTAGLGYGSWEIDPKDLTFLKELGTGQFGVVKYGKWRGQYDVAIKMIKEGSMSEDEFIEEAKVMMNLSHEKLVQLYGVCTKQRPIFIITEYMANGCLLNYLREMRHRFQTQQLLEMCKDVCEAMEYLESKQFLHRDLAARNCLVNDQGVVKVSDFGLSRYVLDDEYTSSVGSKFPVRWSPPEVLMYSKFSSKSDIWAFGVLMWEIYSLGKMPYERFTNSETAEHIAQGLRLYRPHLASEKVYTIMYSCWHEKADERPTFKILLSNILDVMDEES

Regarding `CC#CC(=O)N1CCC[C@H]1c1nc(-c2ccc(C(=O)Nc3ccccn3)cc2)c2c(N)nccn12` [Acalabrutinib], in series [1], the Tolerability entry was “no significant tolerability issues”.

For the compound `C=CC(=O)N1CCC(F)(CNc2ncnc(N)c2-c2ccc(Oc3ccccc3)cc2)CC1` [TL-895], the “Sensitivity to TL-895” value is reported as “sensitive” in [2] (HBL-1, mutations in both CD79b and MyD88); “unresponsive” in series [3] (OCI-Ly3, MyD88 mutation, CD79 wild-type); “unresponsive” in series [4] (SU-DHL-2-epst, MyD88 mutation, CD79 wild-type); “sensitive” in series [5] (TMD8, mutations in both CD79b and MyD88). Moreover, the GI50 (in general, the concentration giving 50% growth inhibition) in [2] (setting [14]) was 560 nM; in series [5] (setting [15]), 10 nM. The IC50 (in general, the midpoint of a concentration-inhibition curve) in [2] (setting [14]) was determined as 10300 nM; in series [5] (setting [15]), 10 nM; in series [12], 18.5 nM; in series [13], 1.5 nM. For the same compound, the Emax in series [2] (Homo sapiens, HBL1, HBL-1 (ABC-DLBCL), 72 h, read-out: Max response (GI %)) was 89%; in [3] (Homo sapiens, OCI-Ly3 (ABC-DLBCL), 72 h, read-out: Max response (GI %)), 39%; in series [4] (Homo sapiens, SU-DHL-2-epst (ABC-DLBCL), 72 h, read-out: Max response (GI %)), 2%; in series [5] (Homo sapiens, TMD8 (ABC-DLBCL), 72 h, read-out: Max response (GI %)) it was 181%. The half-maximal effective concentration (EC50) (usually the concentration needed to bring the measured effect to its halfway point) at 24 h in series [6] (HepG2, 24 h) is > 50000 nM; in series [8], 6400 nM. For the same compound, the EC50 at 72 h in series [6] (HepG2, 72 h) is > 50000 nM. For the same compound, in [7], the “Cytotoxicity EC50 in HepG2 cells relative to IC50s in sensitive MCL and DLBCL cell lines” value is on record as 5–5000 fold. The “Cytotoxicity EC50 in primary human hepatocytes relative to IC50 in primary CLL blasts” value in [9] worked out at 32 fold. The “Effect on ADCC of anti-PD-L1 or anti-EGFR antibodies (concentration–response, maximum cell lysis)” value in series [10] is given as “did not affect the concentration–response or maximum cell lysis when combined with anti-PD-L1 or anti-EGFR antibodies, except at the highest concentrations tested”. The Dose-limiting toxicities result in series [11] (doses up to 900 mg/day) is given as “no dose-limiting toxicities were reported”. In addition, the Maximum tolerated dose entry in series [11] (doses up to 900 mg/day) is given as “not reached”. Also, in series [11] (monotherapy), the “Patients with best response of PR or higher” value is “Half of patients”. The “Patients with treatment-related grade 3–4 adverse events” value in series [11] (three patients) is reported as 17%.
